Reference: patent US8834843B2, “Imaging method” (GE Healthcare Limited, priority 2007, dated 2014)
Like-named read-outs stand apart in the source and are kept apart here. Numbered stars: 1 amine (or outer) side, 2 acyl side, 3 side chain; on linkers, the order of the positions; unused ones are H or OH. Bridge positions count the residues as written; N and C are the ends. Side chains are listed from the residue outwards. Peptide text beside a SMILES is read from it. * marks the point of attachment. X1 = C/C(=N\O)C(C)(C)NCCC(CCNC(C)(C)/C(C)=N/O)CCN*; Glutaryl = O=C(CCCC(=O)[*:2])[*:1]; X2 = NC(=O)COCC(=O)NCCOCCOCCOCCN*

Columns and labels:
[1] = system: fibrogenic livers in rat BDL model; assay: Liver uptake (SUV) in BDL vs sham rats at 2-28 days post-operatively; format: in vivo; conditions: 1 hour after tail vein injection
Procedure: Outbred male Sprague Dawley rats (180-200 g; Charles River) were used in all bile duct ligation (BDL) and sham studies. […] For the BDL animals, the abdomen was shaved and swabbed with betadine solution followed by 5 mg/kg carprofen subcutaneously (s.c.) and 5 mg/kg bupronorphine s.c. and under Isoflurane anaesthesia a mid-line laparotomy was performed and the common bile duct located. Bile duct was double ligated, the first ligation made between the junction of the hepatic ducts and the second above the entrance of the pancreatic ducts. […] Animals were closely monitored for the duration of the experiment. […] At the appropriate time point post-injection of the test item, each animal was re-anaesthetised with isoflurane, sacrificed by cervical dislocation weighed and the weight recorded via a barcode scanning system. Each animal was dissected and the following organs and tissues were removed and counted using BASIL counter protocol 40 or manual counting: The BDL and sham animal models were set up as described in Example 3. Uptake of Compound 8 was calculated as Standard Uptake Value (SUV) as follows: [formula] • Zs=counts per second in sample • Ws=weight of sample in grams • Z1=total counts per second measured in all the samples (excluding the injection site) • W1=weight of animal in grams […]

[2] = Biodistribution in BDL rats with and without excess cold compound; format: in vivo; conditions: male, Sprague Dawley, rat, iv, total radioactivity, BDL rats, 15 days post-op, 1 hour post-injection; for dose excreted at 1 h: bile and urine
Procedure: (§1) On the appropriate day post surgery BDL and sham animals were removed and put under isoflurane anaesthesia, then each animal was injected with 0.3 ml intravenously (i.v.) via tail vein (˜3MBq). At the appropriate time point post-injection of the test item, each animal was re-anaesthetised with isoflurane, sacrificed by cervical dislocation weighed and the weight recorded via a barcode scanning system. Each animal was dissected and the following organs and tissues were removed and counted using BASIL counter protocol 40 or manual counting:
(§2) The recorded activity in a whole organ (e.g., liver) was corrected for background radioactivity and for radioactive decay and the biodistribution of radioactivity calculated by reference to Formula I:
(§3) [formula] where: • A=counts per second measured in organ • B=total counts per second measured in all samples (excluding the injection site)
(§4) The percentage of injected radioactivity in the weighed tissue samples (e.g., blood) was calculated to give % i.d. in the entire tissue by reference to Formula 2:
(§5) [formula] where: • Zs=counts per second in sample • Ws=weight of sample in grams • Wb=weight of animal in grams immediately after sacrifice • B=total counts per second measured in all the samples (excluding the injection site) • F=tissue specific factor representing the mass of the tissue as a proportion of the total body weight of the animal
(§6) The biodistribution of radioactivity was investigated in 15 days post-operatively in BDL and sham-operated male Sprague Dawley rats (procedures described in Example 3) 1 hour following of intravenous injection via tail vein of ˜3 MBq of Compound 8, both before and after addition of 1:100 and 1:10,000 fold excess of cold Compound 8. At the appropriate time point post-injection of the test Item, each animal was re-anaesthetised with isoflurane, sacrificed by cervical dislocation and weighed. Each animal was dissected and organs and tissues (see Tables 5 and 6 below) were removed and counted using BASIL counter protocol 40 or manual counting.

BDL fibrogenic liver = assay: as above; format: in vivo; conditions: rat, in vivo
Procedure: as §1, §2, §3, §4, §5, §6

EA-Hy926 membranes = assay: Competitive binding assay with 125I-echistatin on EA-Hy926 membranes; parameters: species or system human; conditions: cold compound vs 125I-echistatin, 1 hour at 37° C.; read-out: Ki in the EA-Hy926 membrane assay
Procedure: The inhibition constant of Compound 6 was measured using a previously-described membrane binding assay (Indrevoll et al, Bioorg & Med Chem Lett, 2006, 16, 6190-6193).
In brief, membranes from the human endothelial adenocarcinoma cell line EA-Hy926 were prepared and the Kd calculated for the purified membrane fraction. A competitive binding assay was then established to measure inhibition constants for cold Compound 6. ^125I-echistatin was used as the labelled ligand and cold echistatin as a reference standard.
A total of sixteen dilutions of cold test compound (either cold echistatin or cold Compound 6) were prepared and mixed with a combination of ^125I-echistatin and membrane prior to incubation for 1 hour at 37° C. Following several washes, the bound material was harvested on a filter using a Skatron micro harvester. The filterspots were finally excised and counted in a Packard γ-counter.
The inhibition constants for Compound 3 and Compound 8 were determined using the method described in Example 1. FIG. 3 illustrates binding of ^125I-echistatin versus cold Compound 3, Compound 8 and echistatin on EA-Hy926 membranes.

dose excreted at 1 h ([2]; 3 MBq, 10K-fold excess cold Compound 8): 41.6% | dose excreted at 1 h ([2]; 3 MBq, 100-fold excess cold Compound 8): 38.3% | dose excreted at 1 h ([2]; 3 MBq, no excess): 41% | tissue uptake dose at 1 h ([2]; blood, 10K-fold excess cold Compound 8, read-out: Activity in Blood, Mean): 1.6 %ID | tissue uptake dose at 1 h ([2]; blood, 100-fold excess cold Compound 8, read-out: Activity in Blood, Mean): 1.61 %ID | tissue uptake dose at 1 h ([2]; blood, no excess, read-out: Activity in Blood, Mean): 1.47 %ID | tissue uptake dose at 1 h ([2]; bone, 10K-fold excess cold Compound 8, read-out: Activity in Bone, Mean): 3.18 %ID | tissue uptake dose at 1 h ([2]; bone, 100-fold excess cold Compound 8, read-out: Activity in Bone, Mean): 2.97 %ID | tissue uptake dose at 1 h ([2]; bone, no excess, read-out: Activity in Bone, Mean): 3.02 %ID | tissue uptake dose at 1 h ([2]; carcass, 10K-fold excess cold Compound 8, read-out: Activity in Carcass, Mean): 6.14 %ID | tissue uptake dose at 1 h ([2]; carcass, 100-fold excess cold Compound 8, read-out: Activity in Carcass, Mean): 6.47 %ID | tissue uptake dose at 1 h ([2]; carcass, no excess, read-out: Activity in Carcass, Mean): 4.36 %ID | tissue uptake dose at 1 h ([2]; heart, 10K-fold excess cold Compound 8, read-out: Activity in Heart, Mean): 0.14 %ID | tissue uptake dose at 1 h ([2]; heart, 100-fold excess cold Compound 8, read-out: Activity in Heart, Mean): 0.13 %ID | tissue uptake dose at 1 h ([2]; heart, no excess, read-out: Activity in Heart, Mean): 0.13 %ID | tissue uptake dose at 1 h ([2]; injection site, 10K-fold excess cold Compound 8, read-out: Activity in Injection Site, Mean): 1.68 %ID | tissue uptake dose at 1 h ([2]; injection site, 100-fold excess cold Compound 8, read-out: Activity in Injection Site, Mean): 1.75 %ID | tissue uptake dose at 1 h ([2]; injection site, no excess, read-out: Activity in Injection Site, Mean): 1.32 %ID | tissue uptake dose at 1 h ([2]; kidneys, 3 MBq, 10K-fold excess cold Compound 8, read-out: Activity in Kidneys, Mean): 3.61 %ID | tissue uptake dose at 1 h ([2]; kidneys, 3 MBq, 100-fold excess cold Compound 8, read-out: Activity in Kidneys, Mean): 4.2 %ID | tissue uptake dose at 1 h ([2]; kidneys, no excess, read-out: Activity in Kidneys, Mean): 3.78 %ID | tissue uptake dose at 1 h ([2]; liver, 10K-fold excess cold Compound 8, read-out: Activity in Liver, Mean): 9.81 %ID | tissue uptake dose at 1 h ([2]; liver, 100-fold excess cold Compound 8, read-out: Activity in Liver, Mean): 16.1 %ID | tissue uptake dose at 1 h ([2]; liver, no excess, read-out: Activity in Liver, Mean): 12.7 %ID | tissue uptake dose at 1 h ([2]; lung, 10K-fold excess cold Compound 8, read-out: Activity in Lung, Mean): 0.5 %ID | tissue uptake dose at 1 h ([2]; lung, 100-fold excess cold Compound 8, read-out: Activity in Lung, Mean): 0.5 %ID | tissue uptake dose at 1 h ([2]; lung, no excess, read-out: Activity in Lung, Mean): 0.43 %ID | tissue uptake dose at 1 h ([2]; muscle, 10K-fold excess cold Compound 8, read-out: Activity in Muscle, Mean): 9.61 %ID | tissue uptake dose at 1 h ([2]; muscle, 100-fold excess cold Compound 8, read-out: Activity in Muscle, Mean): 8.76 %ID | tissue uptake dose at 1 h ([2]; muscle, no excess, read-out: Activity in Muscle, Mean): 10.8 %ID | tissue uptake dose at 1 h ([2]; skin, 10K-fold excess cold Compound 8, read-out: Activity in Skin, Mean): 13 %ID | tissue uptake dose at 1 h ([2]; skin, 100-fold excess cold Compound 8, read-out: Activity in Skin, Mean): 12 %ID | tissue uptake dose at 1 h ([2]; skin, no excess, read-out: Activity in Skin, Mean): 12.6 %ID | tissue uptake dose at 1 h ([2]; small and large intestine, 10K-fold excess cold Compound 8, read-out: Activity in Small & Large Intestine, Mean): 8.58 %ID | tissue uptake dose at 1 h ([2]; small and large intestine, 100-fold excess cold Compound 8, read-out: Activity in Small & Large Intestine, Mean): 7.41 %ID | tissue uptake dose at 1 h ([2]; small and large intestine, no excess, read-out: Activity in Small & Large Intestine, Mean): 8.32 %ID | tissue uptake dose at 1 h ([2]; spleen, 10K-fold excess cold Compound 8, read-out: Activity in Spleen, Mean): 0.52 %ID | tissue uptake dose at 1 h ([2]; spleen, 100-fold excess cold Compound 8, read-out: Activity in Spleen, Mean): 0.57 %ID | tissue uptake dose at 1 h ([2]; spleen, no excess, read-out: Activity in Spleen, Mean): 0.51 %ID | tissue uptake dose at 1 h ([2]; stomach, 10K-fold excess cold Compound 8, read-out: Activity in Stomach, Mean): 1.69 %ID | tissue uptake dose at 1 h ([2]; stomach, 100-fold excess cold Compound 8, read-out: Activity in Stomach, Mean): 0.96 %ID | tissue uptake dose at 1 h ([2]; stomach, no excess, read-out: Activity in Stomach, Mean): 0.89 %ID | tissue uptake dose at 1 h ([2]; thyroid, 10K-fold excess cold Compound 8, read-out: Activity in Thyroid, Mean): 0.06 %ID | tissue uptake dose at 1 h ([2]; thyroid, 100-fold excess cold Compound 8, read-out: Activity in Thyroid, Mean): 0.04 %ID | tissue uptake dose at 1 h ([2]; thyroid, no excess, read-out: Activity in Thyroid, Mean): 0.04 %ID | Ki (EA-Hy926 membranes): 6 nM
Structure (SMILES): C/C(=N\O)C(C)(C)NCCC(CCNC(=O)CCCC(=O)NCCCC[C@@H]1NC(=O)CSC[C@@H](C(=O)NCCOCCOCCOCCNC(=O)COCC(N)=O)NC(=O)[C@H](Cc2ccccc2)NC(=O)[C@@H]2CSSC[C@H](NC1=O)C(=O)N[C@@H](CCCNC(=N)N)C(=O)NCC(=O)N[C@@H](CC(=O)O)C(=O)N2)CCNC(C)(C)/C(C)=N/O (stereo partly drawn) [Compound 8] ({CH2CO}-K([Glutaryl-X1])CRGDCFC-X2; disulfide 2-6; thioether N-8)
Liver uptake in BDL rats (in words) [1]: specific uptake | Binding to BDL fibrogenic liver with excess cold compound (in words) (BDL fibrogenic liver): Specifically Inhibited by Cold Compound 8
